{"source": "ChEMBL document CHEMBL4387741", "about": "“Optimization of novel reversible Bruton's tyrosine kinase inhibitors identified using Tethering-fragment-based screens” (Bioorg Med Chem, 2019)", "key": {"[1]": {"target": "Protein kinase C epsilon type (Homo sapiens) (UniProt Q02156)", "assay": "Inhibition of wild-type human partial length PRKCE (A378 to P737 residues) expressed in mammalian expression system at 1 uM by Kinomescan method relative to control"}, "[2]": {"target": "Mitogen-activated protein kinase 9 (Homo sapiens) (UniProt P45984)", "assay": "Inhibition of wild-type human full length JNK2 (M1 to Q382 residues) expressed in mammalian expression system at 1 uM by Kinomescan method relative to control"}, "[3]": {"target": "Dual serine/threonine and tyrosine protein kinase (Homo sapiens) (UniProt Q6XUX3)", "assay": "Inhibition of wild-type human full length RIPK5 (M1 to T929 residues) expressed in mammalian expression system at 1 uM by Kinomescan method relative to control"}, "[4]": {"target": "cGMP-dependent protein kinase 1 (Homo sapiens) (UniProt Q13976)", "assay": "Inhibition of wild-type human partial length PRKG1 (L339 to F686 residues) expressed in bacterial expression system at 1 uM by Kinomescan method relative to control"}, "[5]": {"target": "Phosphatidylinositol 5-phosphate 4-kinase type-2 beta (Homo sapiens) (UniProt P78356)", "assay": "Inhibition of wild-type human full length PIP5K2B (M1 to T416 residues) expressed in bacterial expression system at 1 uM by Kinomescan method relative to control"}, "[6]": {"target": "Cyclin-dependent kinase 13 (Homo sapiens) (UniProt Q14004)", "sequence (Q14004 whole entry, looked up, the tested form may be a part)": "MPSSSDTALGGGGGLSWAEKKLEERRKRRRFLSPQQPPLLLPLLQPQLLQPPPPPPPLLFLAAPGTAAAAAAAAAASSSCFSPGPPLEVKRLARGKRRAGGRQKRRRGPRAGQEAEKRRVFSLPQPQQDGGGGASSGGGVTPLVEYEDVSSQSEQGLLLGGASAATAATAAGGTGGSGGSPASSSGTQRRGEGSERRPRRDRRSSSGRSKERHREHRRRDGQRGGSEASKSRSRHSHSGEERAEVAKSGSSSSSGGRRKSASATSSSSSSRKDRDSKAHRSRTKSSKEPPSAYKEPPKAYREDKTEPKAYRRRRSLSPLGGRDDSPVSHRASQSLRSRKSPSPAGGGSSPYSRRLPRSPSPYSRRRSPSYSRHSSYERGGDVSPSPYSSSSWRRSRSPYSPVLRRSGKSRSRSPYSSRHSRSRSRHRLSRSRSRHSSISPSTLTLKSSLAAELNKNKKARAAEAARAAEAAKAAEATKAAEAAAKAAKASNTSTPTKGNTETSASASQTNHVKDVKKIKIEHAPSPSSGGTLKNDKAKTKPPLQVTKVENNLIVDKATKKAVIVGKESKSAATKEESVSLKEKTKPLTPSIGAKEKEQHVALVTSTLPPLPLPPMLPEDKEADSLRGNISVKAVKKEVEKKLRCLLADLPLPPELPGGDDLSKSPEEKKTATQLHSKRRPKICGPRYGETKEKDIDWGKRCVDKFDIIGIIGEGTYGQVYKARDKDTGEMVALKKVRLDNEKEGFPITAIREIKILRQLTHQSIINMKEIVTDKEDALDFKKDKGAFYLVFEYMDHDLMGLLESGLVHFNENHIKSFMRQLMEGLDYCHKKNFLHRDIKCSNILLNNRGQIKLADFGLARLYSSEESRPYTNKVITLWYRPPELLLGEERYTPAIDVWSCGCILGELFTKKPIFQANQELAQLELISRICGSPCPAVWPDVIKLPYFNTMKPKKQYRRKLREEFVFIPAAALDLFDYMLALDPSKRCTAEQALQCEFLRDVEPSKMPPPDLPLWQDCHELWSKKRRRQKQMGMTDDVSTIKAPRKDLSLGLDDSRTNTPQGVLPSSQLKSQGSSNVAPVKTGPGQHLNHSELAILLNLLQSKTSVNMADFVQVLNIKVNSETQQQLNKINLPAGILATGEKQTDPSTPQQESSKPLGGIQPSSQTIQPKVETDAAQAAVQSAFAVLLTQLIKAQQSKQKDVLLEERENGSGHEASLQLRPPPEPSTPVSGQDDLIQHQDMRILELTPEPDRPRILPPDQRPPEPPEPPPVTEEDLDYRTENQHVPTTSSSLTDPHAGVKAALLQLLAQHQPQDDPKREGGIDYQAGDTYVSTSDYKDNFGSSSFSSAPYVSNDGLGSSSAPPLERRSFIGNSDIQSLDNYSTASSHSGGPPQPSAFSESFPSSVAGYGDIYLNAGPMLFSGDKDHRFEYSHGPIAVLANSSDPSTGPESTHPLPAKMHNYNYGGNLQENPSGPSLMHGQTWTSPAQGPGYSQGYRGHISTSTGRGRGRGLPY", "assay": "Inhibition of wild-type human partial length CDC2L5 (H675 to S1054 residues) expressed in mammalian expression system at 1 uM by Kinomescan method relative to control"}, "[7]": {"target": "Dual specificity protein kinase CLK2 (Homo sapiens) (UniProt P49760)", "assay": "Inhibition of wild-type human partial length CLK2 (D144 to R498 residues) expressed in bacterial expression system at 1 uM by Kinomescan method relative to control"}, "[8]": {"test_system": "Mast/stem cell growth factor receptor Kit (Homo sapiens), P10721 [UNDEFINED MUTATION]", "assay": "Inhibition of human partial length KIT V559D/V654 double mutant (Y545 to D952 residues) expressed in bacterial expression system at 1 uM by Kinomescan method relative to control"}, "[9]": {"target": "Receptor-interacting serine/threonine-protein kinase 1 (Homo sapiens) (UniProt Q13546)", "assay": "Inhibition of wild-type human partial length RIPK1 (M1 to K305 residues) expressed in bacterial expression system at 1 uM by Kinomescan method relative to control"}, "[10]": {"target": "Serine/threonine-protein kinase 24 (Homo sapiens) (UniProt Q9Y6E0)", "assay": "Inhibition of wild-type human partial length MST3 (A30 to S311 residues) expressed in bacterial expression system at 1 uM by Kinomescan method relative to control"}, "[11]": {"target": "Inhibitor of nuclear factor kappa-B kinase subunit epsilon (Homo sapiens) (UniProt Q14164)", "assay": "Inhibition of wild-type human full length IKK-epsilon (M1 to V716 residues) expressed in mammalian expression system at 1 uM by Kinomescan method relative to control"}, "[12]": {"target": "Serine/threonine-protein kinase Sgk2 (Homo sapiens) (UniProt Q9HBY8)", "assay": "Inhibition of wild-type human partial length SGK2 (L54 to C427 residues) expressed in mammalian expression system at 1 uM by Kinomescan method relative to control"}, "[13]": {"target": "Citron Rho-interacting kinase (Homo sapiens) (UniProt O14578)", "assay": "Inhibition of wild-type human partial length CIT (M68 to E432 residues) expressed in bacterial expression system at 1 uM by Kinomescan method relative to control"}, "[14]": {"target": "Tyrosine-protein kinase FRK (Homo sapiens) (UniProt P42685)", "assay": "Inhibition of wild-type human partial length FRK (A215 to F503 residues) expressed in bacterial expression system at 10 uM by Kinomescan method relative to control"}, "[15]": {"target": "Tyrosine-protein kinase Lyn (Homo sapiens) (UniProt P07948)", "assay": "Inhibition of wild-type human partial length LYN (C219 to Q511 residues) expressed in bacterial expression system at 10 uM by Kinomescan method relative to control"}, "[16]": {"target": "Serine/threonine-protein kinase Chk1 (Homo sapiens) (UniProt O14757)", "sequence (O14757 whole entry, the tested form may be a part)": "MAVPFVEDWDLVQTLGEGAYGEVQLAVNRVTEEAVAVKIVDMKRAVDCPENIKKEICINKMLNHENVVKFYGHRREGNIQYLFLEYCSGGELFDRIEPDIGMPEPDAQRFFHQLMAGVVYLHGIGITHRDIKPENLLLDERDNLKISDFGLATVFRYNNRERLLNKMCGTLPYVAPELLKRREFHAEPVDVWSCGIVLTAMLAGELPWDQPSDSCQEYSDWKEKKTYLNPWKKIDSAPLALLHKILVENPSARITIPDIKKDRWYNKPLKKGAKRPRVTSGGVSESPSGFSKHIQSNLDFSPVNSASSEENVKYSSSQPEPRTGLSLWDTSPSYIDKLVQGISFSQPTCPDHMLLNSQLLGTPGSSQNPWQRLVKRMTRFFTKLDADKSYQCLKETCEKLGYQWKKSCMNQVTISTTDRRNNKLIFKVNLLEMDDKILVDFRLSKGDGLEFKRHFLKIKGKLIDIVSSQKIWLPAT", "assay": "Inhibition of wild-type human partial length CHEK1 (M1 to G289 residues) expressed in bacterial expression system at 10 uM by Kinomescan method relative to control"}, "[17]": {"target": "Cyclin-dependent kinase 13 (Homo sapiens) (UniProt Q14004)", "assay": "Inhibition of wild-type human partial length CDC2L5 (H675 to S1054 residues) expressed in mammalian expression system at 10 uM by Kinomescan method relative to control"}, "[18]": {"target": "Cyclin-dependent kinase 4/cyclin D1 (Homo sapiens) (UniProt P11802+P24385)", "assay": "Inhibition of wild-type human full length CDK4/cyclinD1 (M1 to E303 residues) expressed in mammalian expression system at 10 uM by Kinomescan method relative to control"}, "[19]": {"target": "Membrane-associated tyrosine- and threonine-specific cdc2-inhibitory kinase (Homo sapiens) (UniProt Q99640)", "sequence (Q99640 whole entry, the tested form may be a part)": "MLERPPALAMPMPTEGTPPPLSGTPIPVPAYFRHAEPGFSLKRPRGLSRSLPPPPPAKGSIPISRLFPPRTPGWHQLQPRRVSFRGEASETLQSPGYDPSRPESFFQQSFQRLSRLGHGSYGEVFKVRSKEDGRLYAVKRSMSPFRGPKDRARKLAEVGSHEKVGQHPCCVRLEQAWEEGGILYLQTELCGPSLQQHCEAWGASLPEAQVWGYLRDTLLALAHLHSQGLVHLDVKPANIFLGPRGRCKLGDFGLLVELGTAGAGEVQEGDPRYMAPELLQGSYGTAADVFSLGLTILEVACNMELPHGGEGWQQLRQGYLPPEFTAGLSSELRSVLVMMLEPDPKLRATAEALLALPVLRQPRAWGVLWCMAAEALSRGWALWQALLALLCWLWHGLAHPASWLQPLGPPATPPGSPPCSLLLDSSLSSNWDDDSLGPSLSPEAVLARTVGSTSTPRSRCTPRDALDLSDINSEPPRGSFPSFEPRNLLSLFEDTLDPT", "assay": "Inhibition of wild-type human partial length PKMYT1 (A88 to G366 residues) expressed in bacterial expression system at 10 uM by Kinomescan method relative to control"}, "[20]": {"target": "Leucine-rich repeat serine/threonine-protein kinase 2 (Homo sapiens) (UniProt Q5S007)", "sequence (Q5S007 whole entry, the tested form may be a part)": "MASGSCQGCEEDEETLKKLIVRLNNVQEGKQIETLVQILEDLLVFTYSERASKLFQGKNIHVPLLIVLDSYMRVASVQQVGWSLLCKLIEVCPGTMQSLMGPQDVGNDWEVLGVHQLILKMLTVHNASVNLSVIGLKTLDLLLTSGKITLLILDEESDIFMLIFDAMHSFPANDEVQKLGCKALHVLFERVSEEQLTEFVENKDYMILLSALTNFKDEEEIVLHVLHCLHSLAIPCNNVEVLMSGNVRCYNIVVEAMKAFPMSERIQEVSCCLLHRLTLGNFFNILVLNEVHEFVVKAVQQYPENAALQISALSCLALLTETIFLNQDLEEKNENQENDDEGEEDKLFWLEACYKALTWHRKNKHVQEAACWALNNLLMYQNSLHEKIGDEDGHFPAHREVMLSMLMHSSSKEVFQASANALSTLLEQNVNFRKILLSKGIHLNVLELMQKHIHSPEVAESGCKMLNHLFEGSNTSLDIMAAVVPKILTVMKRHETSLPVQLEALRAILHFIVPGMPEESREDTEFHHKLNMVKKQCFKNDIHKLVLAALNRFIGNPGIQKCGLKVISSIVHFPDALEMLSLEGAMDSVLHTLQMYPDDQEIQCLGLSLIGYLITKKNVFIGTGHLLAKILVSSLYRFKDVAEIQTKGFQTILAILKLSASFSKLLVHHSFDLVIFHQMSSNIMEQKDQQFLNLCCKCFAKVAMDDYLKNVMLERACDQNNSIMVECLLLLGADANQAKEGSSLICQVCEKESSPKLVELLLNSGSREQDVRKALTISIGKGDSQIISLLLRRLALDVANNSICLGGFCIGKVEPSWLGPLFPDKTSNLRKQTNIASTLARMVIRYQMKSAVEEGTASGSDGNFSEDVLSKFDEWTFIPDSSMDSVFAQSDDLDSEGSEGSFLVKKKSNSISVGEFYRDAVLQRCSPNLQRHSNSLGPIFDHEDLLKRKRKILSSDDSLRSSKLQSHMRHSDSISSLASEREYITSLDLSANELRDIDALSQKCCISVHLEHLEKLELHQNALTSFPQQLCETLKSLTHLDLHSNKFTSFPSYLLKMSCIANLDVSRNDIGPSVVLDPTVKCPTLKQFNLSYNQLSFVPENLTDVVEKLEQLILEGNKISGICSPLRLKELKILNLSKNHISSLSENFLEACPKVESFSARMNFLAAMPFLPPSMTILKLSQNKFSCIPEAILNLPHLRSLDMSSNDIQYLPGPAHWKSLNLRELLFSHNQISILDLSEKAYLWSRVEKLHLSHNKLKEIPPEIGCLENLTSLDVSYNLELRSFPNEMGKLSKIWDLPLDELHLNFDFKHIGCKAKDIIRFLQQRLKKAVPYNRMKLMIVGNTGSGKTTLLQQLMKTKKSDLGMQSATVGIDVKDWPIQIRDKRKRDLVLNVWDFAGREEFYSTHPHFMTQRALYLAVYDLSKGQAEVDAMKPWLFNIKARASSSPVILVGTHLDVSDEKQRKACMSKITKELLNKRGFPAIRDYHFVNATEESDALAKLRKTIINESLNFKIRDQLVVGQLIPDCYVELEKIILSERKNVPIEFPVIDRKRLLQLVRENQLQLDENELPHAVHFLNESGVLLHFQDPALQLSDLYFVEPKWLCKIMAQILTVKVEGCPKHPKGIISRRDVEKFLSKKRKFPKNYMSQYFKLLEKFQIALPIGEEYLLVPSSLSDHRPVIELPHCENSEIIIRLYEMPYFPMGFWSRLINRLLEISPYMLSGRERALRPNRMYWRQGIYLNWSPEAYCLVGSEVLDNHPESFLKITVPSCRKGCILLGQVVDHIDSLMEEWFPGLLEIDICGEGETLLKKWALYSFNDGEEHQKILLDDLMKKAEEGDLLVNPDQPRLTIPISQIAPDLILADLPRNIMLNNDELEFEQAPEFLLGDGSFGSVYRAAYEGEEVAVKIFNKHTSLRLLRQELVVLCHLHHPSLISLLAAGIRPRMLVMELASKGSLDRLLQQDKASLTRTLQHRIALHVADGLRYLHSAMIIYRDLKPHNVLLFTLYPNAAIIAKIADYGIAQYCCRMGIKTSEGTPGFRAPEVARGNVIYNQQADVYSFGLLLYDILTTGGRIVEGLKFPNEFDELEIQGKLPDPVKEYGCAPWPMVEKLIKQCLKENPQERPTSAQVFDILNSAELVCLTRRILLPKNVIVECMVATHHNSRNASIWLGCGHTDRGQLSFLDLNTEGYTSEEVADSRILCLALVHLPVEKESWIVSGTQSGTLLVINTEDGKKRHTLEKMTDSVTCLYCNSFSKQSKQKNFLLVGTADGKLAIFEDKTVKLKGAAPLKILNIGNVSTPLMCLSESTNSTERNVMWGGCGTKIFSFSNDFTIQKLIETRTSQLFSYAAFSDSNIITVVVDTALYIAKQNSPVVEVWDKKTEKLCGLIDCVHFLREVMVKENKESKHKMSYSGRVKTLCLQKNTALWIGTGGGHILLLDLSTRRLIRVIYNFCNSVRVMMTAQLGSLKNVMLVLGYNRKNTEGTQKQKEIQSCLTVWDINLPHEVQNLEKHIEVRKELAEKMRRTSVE", "assay": "Inhibition of wild-type human partial length LRRK2 (H970 to E2527 residues) expressed in mammalian expression system at 10 uM by Kinomescan method relative to control"}, "[21]": {"test_system": "Epidermal growth factor receptor (Homo sapiens), P00533 [UNDEFINED MUTATION]", "assay": "Inhibition of human partial length EGFR E746-A750del mutant expressed in bacterial expression system at 10 uM by Kinomescan method relative to control"}, "[22]": {"test_system": "Mast/stem cell growth factor receptor Kit (Homo sapiens), P10721 [V559D]", "assay": "Inhibition of human partial length KIT V559D mutant (Y545 to D952 residues) expressed in bacterial expression system at 10 uM by Kinomescan method relative to control"}, "[23]": {"target": "Serine/threonine-protein kinase MARK2 (Homo sapiens) (UniProt Q7KZI7)", "assay": "Inhibition of wild-type human partial length MARK2 (M1 to R450 residues) expressed in bacterial expression system at 10 uM by Kinomescan method relative to control"}, "[24]": {"target": "Mitogen-activated protein kinase 4 (Homo sapiens) (UniProt P31152)", "assay": "Inhibition of wild-type human partial length ERK4 (M1 to L365 residues) expressed in bacterial expression system at 10 uM by Kinomescan method relative to control"}, "[25]": {"target": "Vascular endothelial growth factor receptor 1 (Homo sapiens) (UniProt P17948)", "assay": "Inhibition of wild-type human partial length FLT1 (R781 to F1239 residues) expressed in bacterial expression system at 10 uM by Kinomescan method relative to control"}, "[26]": {"test_system": "Receptor-type tyrosine-protein kinase FLT3 (Homo sapiens), P36888 [R834Q]", "assay": "Inhibition of human partial length FLT3 R834Q mutant (V592 to Y969 residues) expressed in mammalian expression system at 10 uM by Kinomescan method relative to control"}, "[27]": {"target": "SNF-related serine/threonine-protein kinase (Homo sapiens) (UniProt Q9NRH2)", "assay": "Inhibition of wild-type human partial length SNRK (M1 to E339 residues) expressed in mammalian expression system at 10 uM by Kinomescan method relative to control"}}}
{"smiles": "O=C(Nc1cccc([C@@H]2CN(c3ncnc4[nH]ccc34)CCN2CCO)c1)Nc1c(F)cccc1N1CCCC1", "values": [{"measurement": "inhibition", "setting": "[1]", "result": 72, "unit": "%"}, {"measurement": "inhibition", "setting": "[2]", "result": 100, "unit": "%"}, {"measurement": "inhibition", "setting": "[3]", "result": 74, "unit": "%"}, {"measurement": "inhibition", "setting": "[4]", "result": 100, "unit": "%"}, {"measurement": "inhibition", "setting": "[5]", "result": 96, "unit": "%"}, {"measurement": "inhibition", "setting": "[6]", "result": 96, "unit": "%"}, {"measurement": "inhibition", "setting": "[7]", "result": 86, "unit": "%"}, {"measurement": "inhibition", "setting": "[8]", "result": 65, "unit": "%"}, {"measurement": "inhibition", "setting": "[9]", "result": 100, "unit": "%"}, {"measurement": "inhibition", "setting": "[10]", "result": 73, "unit": "%"}, {"measurement": "inhibition", "setting": "[11]", "result": 96, "unit": "%"}, {"measurement": "inhibition", "setting": "[12]", "result": 63, "unit": "%"}, {"measurement": "inhibition", "setting": "[13]", "result": 64, "unit": "%"}]}
{"smiles": "O=C(Nc1cccc([C@H]2CCCN(c3ncnc4[nH]ccc34)C2)c1)Nc1ccccc1N1CCCC1", "values": [{"measurement": "inhibition", "setting": "[14]", "result": 96, "unit": "%"}, {"measurement": "inhibition", "setting": "[15]", "result": 66, "unit": "%"}, {"measurement": "inhibition", "setting": "[16]", "result": 100, "unit": "%"}, {"measurement": "inhibition", "setting": "[17]", "result": 97, "unit": "%"}, {"measurement": "inhibition", "setting": "[18]", "result": 74, "unit": "%"}, {"measurement": "inhibition", "setting": "[19]", "result": 71, "unit": "%"}, {"measurement": "inhibition", "setting": "[20]", "result": 96, "unit": "%"}, {"measurement": "inhibition", "setting": "[21]", "result": 75, "unit": "%"}, {"measurement": "inhibition", "setting": "[22]", "result": 0.15, "unit": "%"}, {"measurement": "inhibition", "setting": "[23]", "result": 41, "unit": "%"}, {"measurement": "inhibition", "setting": "[24]", "result": 100, "unit": "%"}, {"measurement": "inhibition", "setting": "[25]", "result": 2.2, "unit": "%"}, {"measurement": "inhibition", "setting": "[26]", "result": 44, "unit": "%"}, {"measurement": "inhibition", "setting": "[27]", "result": 86, "unit": "%"}]}
